Source: patent publication EP2161024A1, “Combination product for the treatment of cancer” (Universitätsklinikum Hamburg-Eppendorf, priority 2008, dated 2010)

How the values were obtained:
[1] = tested on: Zelllinie H69; test: XTT cell proliferation (growth) test with H69 cells; format: cell-based; settings: single agent (alleinige Gabe), Figuren 5a, 5b
[2] = tested on: OH1-Zellen; test: XTT cell proliferation (growth) test with OH1 cells; settings: single agent (alleinige Gabe), 1 µM to 0,001 µM, 72 h incubation, Figur 2
[3] = tested on: Zelllinie H82; test: XTT cell proliferation (growth) test with H82 cells; settings: for Zellwachstum: single agent (alleinige Gabe), H82 cells, Figur 7

Question: Which “Wachstum der Zellen” value [1] does the source give for CC(C)c1c(C(=O)Nc2ccccc2)c(-c2ccccc2)c(-c2ccc(F)cc2)n1CC[C@@H](O)C[C@@H](O)CC(=O)O [Atorvastatin, (3R,5R)-7-[2-(4-Fluorphenyl)-5-isopropyl-3-phenyl-4-(phenylcarbamoyl)pyrrol-1-yl]-3,5-dihydroxyheptansäure] here?
Answer: The value was “nicht zu einer Verringerung des Wachstums”.

Question: And the “Wachstum der OH1-Zellen” value [2]?
Answer: Its value is “nicht zu einer Verringerung des Wachstums”.

Question: And the Zellwachstum [3]?
Answer: The Zellwachstum was “kaum Auswirkungen auf das Zellwachstum”.

Question: What does the source list for CCC(C)C(=O)OC1CC(C)C=C2C=CC(C)C(CCC3CC(O)CC(=O)O3)C21 (stereo not drawn) [Lovastatin, [8-[2-(4-hydroxy-6-oxo-oxan-2-yl)ethyl]-3,7-dimethyl-1,2,3,7,8,8a-hexahydronaphthalen-1-yl]-2-methylbutanoat]?
Answer: Wachstum der OH1-Zellen [2]: nicht zu einer Verringerung des Wachstums; Zellwachstum [3]: kaum Auswirkungen auf das Zellwachstum

Question: What does the source list for COc1ccc(CCN2CCC(Nc3nc4ccccc4n3Cc3ccc(F)cc3)CC2)cc1 [Astemizol, 1-[(4-Fluorphenyl)methyl]-N-[1-[2-(4-methoxyphenyl)ethyl]-4-piperidyl]benzoimidazol-2-amin]?
Answer: Wachstum der Zellen [1]: nicht zu einer Verringerung des Wachstums; Wachstum der OH1-Zellen [2]: nicht zu einer Verringerung des Wachstums; inhibition at 5 µM ([3]; Homo sapiens, NCI-H82, read-out: Hemmung der Proliferation): 50%; Zellwachstum [3]: kaum Auswirkungen auf das Zellwachstum
